Data on two substances can be found in US20110091473A1, “NOVEL ANTIBODY THERAPIES” (GENMAB A/S, priority 2007, published 2011).

Test [1] relates to B cell enriched cell population of a healthy volunteer. Put plainly: Anti-CD20-induced CDC of freshly isolated primary B cells. It is filed as cell-based, human. The conditions noted are these: for primary B cell population killed / cell lysis: MβCD-treated, saturating conditions (≧10 μg/ml); for cell lysis upon cholesterol depletion: primary B cells treated with MβCD. The method, then: Blood was obtained from a donor (either from a healthy volunteer or from patients included in clinical trials related to 2F2). Informed consent was provided according to the Declaration of Helsinki. The blood was used to isolate peripheral blood mononuclear cells (PMBC) via […] gradient separation. Briefly, 10 ml of whole blood was supplemented with 20-25 ml PBS (Braun, Oss, Netherlands). 13 ml of Lymphocyte Separation Medium (Lonza, Verviers, Belgium) was pipetted carefully underneath the diluted whole blood solution. The solution was centrifuged at 2000 rpm for 20 minutes whereupon the interphase containing the PBMC was collected. The cells were washed twice in PBS, counted with trypan blue and suspended in test medium (RMPI 1640/pen strep/0.1% BSA) at a concentration of 2-4×10^6 viable cells/ml. Cells were used to enrich B cells via negative depletion as described in Example 8.
PBMC (obtained as described under Example 17) were used to enrich for B cells using the Dynal B cell negative isolation kit (Dynal, Invitrogen, Carlsbad, Calif.) according to manufacturer's instruction. In brief, PBMC were washed and incubated for 20 minutes with mouse monoclonal antibodies directed against CD2, CD14, CD16, CD36, CD43 or CD235a at 4° C. Magnetic beads coated with human IgG4 against mouse monoclonal antibodies were added and the mixture was again incubated for 15 minutes at 4° C. After incubation mouse mAb-stained cells were separated from the mixture using a magnet. The remaining cells are considered as the B cell enriched population.
Human B cells were isolated from whole blood of a healthy volunteer (donor A) as described under Example 17 and Example 18.
The B cell enriched cell population of donor A and Daudi cells were incubated with MβCD as described under Example 2 and cell surface protein expression and sensitivity for CDC was measured.

Test [2] deals with RAJI cells. Put plainly: CDC of RAJI cells, MTT analysis. The class given is cell-based, human. The method, then:
(§1) CDC was induced by incubating B cells with anti-CD20 mAb (as described in Example 2). After 1-hour incubation (3-(4,5-dimethylthiazol-2-yl)-2,5-diphenyltetrazolium bromide (MTT) solution (5 mg/ml, Roche, Diagnostics, Almere, The Netherlands) was added to each well (flat-bottom microtiter plates; Nunc, Rochester, N.Y.). The reaction was stopped after 4 hours of incubation at 37° C. by the addition of 100 μl of 20% SDS (Roche Diagnostics, Almere, The Netherlands). After overnight incubation at 37° C. the absorbance of the samples was measured at 550-525 nm using an Elisa reader (EL808x, Biotek instruments, Highland park, Vt., USA). Cytotoxicity was expressed as a relative viability of the stimulated cells compared to cells incubated with medium only and was calculated as follows: relative viability=[(Ae−Ab)/(Ac−Ab)]*100, where Ab is the background absorbance, Ae is experimental absorbance of the lysed cells and Ac is the absorbance of untreated cells. The viability was expressed as percentage survival in comparison to non-cholesterol depleted cells (control).

A further test relates to Daudi cells. Put plainly: CDC of Daudi cells, MTT analysis. It is filed as cell-based, human. The following applies: increased concentrations of MβCD. The method, then: as §1
Test [3] concerns RAJI cells. Put plainly: Rituximab-induced ADCC of RAJI cells, 51Cr-release assay with PBMC. It is filed as cell-based, human. The conditions noted are these: for EC50 for rituximab-mediated ADCC: E:T 100:1. On the procedure: In the antibody-dependent cellular cytotoxicity (ADCC) assay target B cells are labelled with radioactive chromium (^51Cr), and incubated with antibody and effector cells. Upon lysis the target cells release ^51Cr which can be measured by separation of the supernatant from the cells and quantification using a scintillation counter.
RAJI cells (obtained from ECACC, Porton Down, United Kingdom) served as target cells, and were cultured in RPMI 1640 supplemented with 10% heat-inactivated cosmic calf serum (CCS), 1 U/ml penicillin, 1 μg/ml streptomycin, and 4 mM L-glutamine (all from Invitrogen, Carlsbad, Calif.). RAJI cells were either non-treated or cholesterol-depleted using lovastatin (10 μM) as described in Example 3, and re-suspended in test medium to a concentration of 2×10^6 viable cells/ml.
RAJI cells were labeled with 20 μCi^51Cr (Amersham Biosciences, Uppsala, Sweden) for 2 hours. After extensive washing in medium, the cells were adjusted to 2×10^5 cells/ml. […] Assays were started by adding ^51Cr-labeled RAH cells (50 μl) giving a final volume of 200 >l. For isolated effector cells, containing 20% NK cells, an effector to target (E:T) ratio of 100:1 was used. After incubation (4 hours, 37° C.), assays were stopped by centrifugation, and ^51Cr release from triplicates was measured in counts per minute (cpm) in a scintillation counter. Percentage of cellular cytotoxicity was calculated using the following formula:
% specific lysis=(experimental cpm−basal cpm)/(maximal cpm−basal cpm)×100
with maximal ^51Cr release determined by adding TritonX-100 (5% final concentration) to target cells, and basal release measured in the absence of sensitizing antibodies and effector cells.

Test [4] relates to freshly isolated human lymphoma B cells. Put plainly: Rituximab-mediated CDC of freshly isolated human lymphoma B cells, MTT assay. The class given is cell-based. The conditions noted are these: 10 mg/ml MβCD 30 minutes; 400 μg/ml rituximab, 10% serum. On the procedure: To extend these observations the influence of cholesterol depletion was studied in freshly isolated human lymphoma B cells. Tumor cells of three mantle cell lymphomas and a small B cell lymphoma were isolated out of bone marrow (10 ml) aspirated from the hip. The cell suspension was diluted twice with PBS (final volume 20 ml). 3 ml of Histopaque-1077 (Sigma Aldrich) was pipetted into two conical centrifuge tubes. 10 ml of diluted bone marrow was slowly layered on the top of Histopaque layer. Probes were centrifuged (400 g, 15 minutes, 25° C.) without brake. The white blood cell ring and plasma were isolated and washed twice with PBS. The leucocyte pellet was resuspeneded in 5 ml medium (RPMI or OptiMEM) and counted in a Bürker chamber using Turk dye. Cells were incubated with either diluent or MβCD (10 mg/ml) for 30 minutes. Treated cells were analyzed for their capacity to bind CD20 mAb as well as sensitivity for rituximab-mediated CDC induction.
For the rituximab-mediated CDC human CD20-positive lymphoma B cells were incubated with either diluent or 10 mg/ml MβCD for 30 minutes. […] The cytotoxic effects were measured in a MTT assay.
A general note: Tetrazolium dyes change colour on reduction, which living cells bring about.

Regarding “2F2: human anti-CD20 mAb, VH SEQ ID NO:1, VL SEQ ID NO:2, disclosed in WO 2004/035607”, in test [1], the “primary B cell population killed / cell lysis” value was “approximately 75%” and the “cell lysis upon cholesterol depletion” value is listed as “reduced”. In addition, the “lysis of B cell enriched cell population” value in test [1] (non-depleted primary B cells, donor A) is given as “could be lysed”. Moreover, in the test with RAJI cells [2] (RAJI cells depleted of cholesterol with MβCD), the “potency to lyse cells in presence of complement, compared with rituximab” value is on record as “more potent”. For the same substance, the “mAb-induced CDC (cell survival)” value in the test with Daudi cells is given as “diminished”.
For “rituximab: anti-CD20 antibody Rituxan/MabThera, type I”, in test [1], the “primary B cell population killed / cell lysis” value is 20-25% and the “cell lysis upon cholesterol depletion” value is given as “reduced”. The “EC50 for rituximab-mediated ADCC” value with RAJI cells [3] (control (non-treated) RAJI cells) came to 0.024 µg/mL. The “EC50 for rituximab-mediated ADCC” value in the test with RAJI cells [3] (lovastatin-treated (10 μM) RAJI cells) is 0.082 µg/mL. Also, the “increase of EC50 for rituximab-mediated ADCC” value with RAJI cells [3] (lovastatin-treated vs control cells) is about 4 fold. Also, the “survival after CDC induction” value in the test on RAJI cells [2] (RAJI cells depleted by lovastatin or MβCD vs non-treated) is listed as “enhanced survival”. In addition, the “capability to lyse cells after cholesterol replenishment” value in the test with RAJI cells [2] (depleted RAJI cells replenished with cholesterol vs non-treated) is “further increased the capability”. Also, the “rituximab-mediated CDC” value in test [4] is listed as “significantly decreased”.
